Measured values as given in paper PMC9145885, “Synthesis of PP2A-Activating PF-543 Derivatives and Investigation of Their Inhibitory Effects on Pancreatic Cancer Cells” (Molecules, 2022).
pIC50: −log10 of the molar value.

Columns and labels:
MIA PaCa2 cells [1] = experiment: Ceramide, S1P and sphingosine levels by ELISA in MIA PaCa2 cells; type: cell-based, human; conditions: 20 µM
Experimental: Ceramide, sphingosine, and S1P level were performed as protocols recommended by Mybiosource using the ceramide, sphingosine, and S1P ELISA kit (MyBiosource Inc., San Diego, CA, USA). Ceramide and sphingosine S1P measurements were tested with proteins that were centrifuged and collected by repeating freezing and thawing from three to five times after adding PBS to cells.

MIA PaCa2 cells [2] = experiment: Annexin-V apoptosis assay (flow cytometry); type: cell-based, human; conditions: 20 µM
Experimental: Cell apoptosis assay was determined using annexin V- FITC and propidium iodide (PI) staining, as described in manufacturer instruction (BioBud, Gyeonggi-do, Korea). Briefly, the cells were resuspended in binding buffer and then incubated with annexin-V-FITC and propidium iodide at room temperature. After incubation, stained cells were analyzed by MACSQuant Analyzer 10 Flow Cytometer (Miltenyi Biotec, Bergisch Gladbach, Germany). The experiment was conducted three times independently (n = 6).

[3] = In vitro metabolic stability in mouse liver microsomes; type: in vitro ADME; conditions: NADPH, 30 min
MIA PaCa2 cells [4] = experiment: Mitochondrial membrane potential, JC-10 staining; type: cell-based, human; conditions: 20 µM
Experimental: To measure the degree of MMP change of cancer cells, 20 μM JC-10 dye and assay buffer (Enzo Co., New York, NY, USA) were added to the cells cultured for 24 h and mixed until the cells were completely dissolved. Subsequently, the cells were incubated in the dark for 30 min at room temperature. The solutions were protected from light and analyzed by using flow cytometry.

[5] = In vitro metabolic stability in human liver microsomes; conditions: human liver microsomes 0.5 mg/mL, NADPH, 30 min
Experimental: Microsomal incubations were conducted in triplicate in 0.1 M potassium phosphate buffer (pH 7.4) in a clean 1.5 mL Eppendorf tube. […] The final incubation mixtures contained 0.5 mg/mL HLM, 0.1 M potassium phosphate buffer (pH 7.4), NADPH regenerating system (1 mM NADPH, 10 mM MgCl2). HLM was added, and the mixture was pre-incubated at 37 °C in a shaking incubator at approximately 350 rpm for 5 min under a Thermo mixer (Eppendorf., Hamburg, Germany). Reactions were initiated by the addition of 1 mM NADPH and were then quenched by adding 40 µL of ice-cold acetonitrile containing 10 µM chlorpropamide (CPP) as an internal standard at 0 and 30 min. The incubation mixtures were then centrifuged at 15,000 g for 5 min at 4 °C. A 2 µL aliquot of the supernatant was directly injected into the LC-MS/MS system. The LC-MS/MS system consisted of the Nexera XR HPLC system (Shimadzu Co., Kyoto, Japan) coupled to the TSQ Vantage triple quadrupole mass spectrometer equipped with Xcalibur version 1.1.1 (Thermo Fisher Scientific Inc., Waltham, MA, USA).

[6] = In vitro metabolic stability in rat liver microsomes; type: in vitro ADME; conditions: NADPH, 30 min
MIA PaCa2 cells [7] = experiment: Western blot of apoptosis-related proteins; type: cell-based, human; conditions: 20 µM, 24 h
Experimental: Cell extracts from MIA Paca2 cells were determined by BCA Protein Assay Kit (Thermo Scientific) according to the manufacturer’s instructions. Separate 20–30 μg protein by electrophoresis using Tris-Glycine gel and transfer to PVDF membranes. After transferring and blocking, the membrane was incubated with the primary antibody in TBS-T buffer containing 5% skim milk overnight at 4 °C. Then, the membrane was washed three times with TBS-T, and the secondary antibody was incubated. Chemiluminescence detection was performed using a Western blot detection kit (Milipore). Bax, Bcl-2, Caspase-3, PARP, AKT, p-AKT, ERK, and p-ERK were used for Western blot analysis. Internal controls were detected using Actin antibody.

[8] = In vitro metabolic stability in dog liver microsomes; type: in vitro ADME; conditions: NADPH, 30 min
SPHK1 = biological target: T1, SPHK1 (Homo sapiens, UniProt Q9NYA1); experiment: Sphingosine kinase 1 activity assay (Adapta screening system); type: biochemical; conditions: 20 µM compound
T1 construct: purchased Thermo Fisher Scientific
Experimental: (§1) SK 1/2 activity was measured using 20 μM PF-543 and compounds 1–10 using the AdaptaTM screening system (Thermo Fisher Scientific system). Sphingosine kinase 1 activity assay used 0.04–0.16 ng SPHK1, 50 μM sphingosine lipid substrate in 32.5 mM HEPES pH 7.5, 0.005% BRIJ 35, 5 mM MgCl2, 0.5 mM EGTA. Sphingosine kinase 2 activity assay detected 35–140 ng SPHK2, 50 μM sphingosine lipid substrate in 32.5 mM HEPES pH 7.5, 0.5 mM EGTA, and 1.5 mM MgCl2.

MIA PaCa2 cells [9] = experiment: Cell viability / cytotoxic effect in MIA PaCa2 cells (EZ-CYTOX/MTT); type: cell-based; conditions: Homo sapiens, MIA PaCa-2, 2.5-40 µM, 24 h, relative IC50
Experimental: The human pancreatic ductal epithelial cell lines MIA Paca2, PANC-1 were maintained in DMEM media with 10% fetal bovine serum (FBS), 100 U/mL penicillin, and 100 µg/mL streptomycin at 37 °C in a humidified 5% CO2/95% air atmosphere. Cells were seeded in 96-well plates at a density of 3000 cells/100 μL/well and incubated for 24 h. The cells were then incubated in a culture medium containing synthetic compounds. Following 24 h of incubation, the cell viability was determined using an EZ-CYTOX kit (DaeilLab Service, Seoul, Korea) according to the manufacturer’s protocol (n = 12).
Supplementary Figure 1. Relative IC50 determination of Compound 5, Compound 10, PF-543, and FTY720. MIAPaCa2 cells were seeded in 96 well plates and treated with 2.5-40 µ M of compounds for 24h. Cell viability was assessed using MTT assay, and Relative IC50 was determined using Graph pad prism software. The result is representative of three independent experiments and data are presented as mean ± SD. *** p < 0.001 compared with non-treated […]
(1 picture or pasted object on this page, not shown here)

PP2A = PP2A immunoprecipitation phosphatase activity assay in MIA PaCa2 cells; type: cell-based, human; conditions: 20 µM
Experimental: PP2A activity assay was a PP2A immunoprecipitation phosphatase assay kit operated according to the manufacturer’s instruction. Briefly, a prepared protein aliquot was incubated with anti-PP2A subunit C-antibody and protein A agarose slurry at 4 °C for 2–3 h, and then phosphopeptide was added. Samples were recorded by Thermo Scientific Multiskan GO.

SPHK2 = biological target: T2, SPHK2 (Homo sapiens, UniProt Q9NRA0); experiment: Sphingosine kinase 2 activity assay (Adapta screening system); type: biochemical; conditions: 20 µM compound
T2 construct: purchased Thermo Fisher Scientific
T2 sequence (Q9NRA0 1-654): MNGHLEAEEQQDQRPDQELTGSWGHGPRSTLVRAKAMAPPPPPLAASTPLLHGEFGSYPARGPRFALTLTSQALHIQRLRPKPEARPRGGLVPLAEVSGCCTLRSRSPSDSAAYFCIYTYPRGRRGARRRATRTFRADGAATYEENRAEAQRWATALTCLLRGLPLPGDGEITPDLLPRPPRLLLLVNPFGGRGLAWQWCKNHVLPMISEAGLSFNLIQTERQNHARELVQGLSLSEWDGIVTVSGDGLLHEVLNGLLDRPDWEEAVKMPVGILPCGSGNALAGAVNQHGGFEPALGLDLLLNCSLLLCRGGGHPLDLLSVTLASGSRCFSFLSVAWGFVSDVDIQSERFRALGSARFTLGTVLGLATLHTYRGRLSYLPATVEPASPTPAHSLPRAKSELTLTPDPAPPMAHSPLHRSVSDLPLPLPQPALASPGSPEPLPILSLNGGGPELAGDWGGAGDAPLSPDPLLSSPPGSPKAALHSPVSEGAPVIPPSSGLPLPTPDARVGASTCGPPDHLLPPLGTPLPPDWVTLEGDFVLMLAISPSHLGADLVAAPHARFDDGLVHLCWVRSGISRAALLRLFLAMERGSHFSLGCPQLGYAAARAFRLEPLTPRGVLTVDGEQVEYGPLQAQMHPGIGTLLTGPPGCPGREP
Experimental: as §1

SK2 = tested on: SK2; parameters: method as in PMID 30889352; conditions: cited from earlier work
SK1 = tested on: SK1; parameters: method as in PMID 30889352; conditions: cited from earlier work

T1 sequence (Q9NYA1 whole entry): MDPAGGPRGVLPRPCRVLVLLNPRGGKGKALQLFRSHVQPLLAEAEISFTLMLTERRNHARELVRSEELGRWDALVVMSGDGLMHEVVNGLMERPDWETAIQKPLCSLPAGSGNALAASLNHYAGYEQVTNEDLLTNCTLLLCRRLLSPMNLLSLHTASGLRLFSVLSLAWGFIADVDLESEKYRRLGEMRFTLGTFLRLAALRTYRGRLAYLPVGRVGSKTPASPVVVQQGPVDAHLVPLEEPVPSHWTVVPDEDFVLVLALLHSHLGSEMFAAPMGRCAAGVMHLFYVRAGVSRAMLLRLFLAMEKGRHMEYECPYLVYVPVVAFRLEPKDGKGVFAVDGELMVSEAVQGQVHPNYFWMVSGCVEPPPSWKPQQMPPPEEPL

In vitro stability, Mouse (%) [3]	In vitro stability, Human (%) [5]	In vitro stability, Rat (%) [6]	In vitro stability, Dog (%) [8]	SK1-inhibitory effect (SPHK1)	SK2-inhibitory effect (SPHK2)	Structure (SMILES)	S1P level (MIA PaCa2 cells [1])	ceramide level (MIA PaCa2 cells [1])	sphingosine level (MIA PaCa2 cells [1])	apoptotic effect (annexin-V) (MIA PaCa2 cells [2])	mitochondrial membrane potential (ratio of red to green fluorescence, JC-10) (MIA PaCa2 cells [4])	expression of anti-apoptotic protein Bcl-2 (MIA PaCa2 cells [7])	expression of pro-apoptotic proteins (cleaved PARP, cleaved caspase-3) (MIA PaCa2 cells [7])	pIC50 (MIA PaCa2 cells [9])	PP2A activity (PP2A)	pIC50 (SK2)	pIC50 (SK1)
33.3%	66.7%	53.3%	58.3%	inhibited both SK1 and SK2	inhibited both SK1 and SK2	CCCCCCCCc1cn(Cc2cc(C)cc(OCc3ccc(CN4CCC(CO)CC4)cc3)c2)nn1 [Compound 10, (1-(4-((3-Methyl-5-((4-octyl-1H-1,2,3-triazol-1-yl)methyl)phenoxy)methyl)benzyl)piperidin-4-yl)methanol]	reduced the levels of S1P and sphingosine	the ceramide level increased	reduced the levels of S1P and sphingosine	high apoptotic effect	significantly reduced the mitochondrial membrane potential	Bcl-2 decreased	cleaved form of PARP and caspase-3 increased	4.95	activated PP2A	–	–
–	–	–	–	–	–	CCCCCCCCc1ccc(CCC(N)(CO)CO)cc1 [FTY720, reference compound]	–	–	–	–	–	–	–	5.02	–	–	–
–	–	–	–	–	–	OC[C@H]1CCCN1Cc1ccc(COc2cccc(OCc3ccc(Cl)cc3)c2)cc1 [compound 55]	–	–	–	–	–	–	–	–	–	7.39	5.38
17.9%	45.4%	27.6%	40.8%	–	–	Cc1cc(Cn2cc(-c3ccccc3)nn2)cc(OCc2ccc(CN3CCC(CO)CC3)cc2)c1 [Compound 5, (1-(4-((3-Methyl-5-((4-phenyl-1H-1,2,3-triazol-1-yl)methyl)phenoxy)methyl)benzyl)piperidin-4-yl)methanol]	increased the S1P level	–	–	–	significantly reduced the mitochondrial membrane potential	–	insignificant compared to the compound 10 treatment group	4.58	little effect on PP2A	–	–

Structure (SMILES)	In vitro stability, Mouse (%) [3]	In vitro stability, Human (%) [5]	In vitro stability, Rat (%) [6]	In vitro stability, Dog (%) [8]	SK1-inhibitory effect (SPHK1)	SK2-inhibitory effect (SPHK2)	S1P level (MIA PaCa2 cells [1])	ceramide level (MIA PaCa2 cells [1])	sphingosine level (MIA PaCa2 cells [1])	apoptotic effect (annexin-V) (MIA PaCa2 cells [2])	mitochondrial membrane potential (ratio of red to green fluorescence, JC-10) (MIA PaCa2 cells [4])	expression of anti-apoptotic protein Bcl-2 (MIA PaCa2 cells [7])	expression of pro-apoptotic proteins (cleaved PARP, cleaved caspase-3) (MIA PaCa2 cells [7])	pIC50 (MIA PaCa2 cells [9])	PP2A activity (PP2A)	pIC50 (SK2)	pIC50 (SK1)
Cc1cc(CS(=O)(=O)c2ccccc2)cc(OCc2ccc(CN3CCC[C@@H]3CO)cc2)c1 [PF-543]	7.5%	–	4.7%	2.9%	–	–	reduce the level of S1P	did not significantly change the levels of ceramide and sphingosine	did not significantly change the levels of ceramide and sphingosine	–	significantly reduced the mitochondrial membrane potential	–	–	–	also activated PP2A	–	–
